Values quoted from earlier work, collected in patent publication US20090062239A1, “THROMBIN RECEPTOR ANTAGONISTS AS PROPHYLAXIS TO COMPLICATIONS FROM CARDIOPULMONARY SURGERY” (Schering Corporation, priority 2005, published 2009).

Experiments:
[1] = high-risk patients undergoing primary CABG, those on aspirin, reoperative bypass
[2] = vein grafts closing off between two weeks and one year after CABG surgery
[3] = treated patients, cardiac/coronary surgery

Row | risk for postoperative hemorrhage [3] | Compound | other results
1 |  | Aprotinin | postoperative blood loss [1]: significantly decreases; transfusion requirements (both units and number of patients) [1]: significantly decreases
2 |  | CC(=O)Oc1ccccc1C(=O)O [aspirin] | reduction of later vein graft closings [2]: 50%
3 | greater risk | COC(=O)[C@H](c1ccccc1Cl)N1CCc2sccc2C1 [clopidogrel] | 
4 | greater risk | low-molecular weight heparin | 

Row | Compound | risk for postoperative hemorrhage [3] | other results
5 | abciximab | greater risk | 
